Laboratory results taken from patent US7795456B2, “Insecticidal N-substituted sulfoximines” (Dow AgroSciences LLC, priority 2004, dated 2010).

Key:
[1] = test system: yellow fever mosquito (Aedes aegypti) larvae; experiment: whole plant or invertebrate; assay type: in vivo; details: 72 h, read-out: YFM 26: % control at 26 ppm against yellow fever mosquito in submerge tests
[2] = test system: Colorado potato beetle (Leptinotarsa decemlineata); experiment: Insecticidal test for Colorado potato beetle, foliar spray on tomato; assay type: in vivo; details: for % Control at ppm, against Colorado potato beetle: 3.13: 3.13 ppm; for % Control at ppm, against Colorado potato beetle: 12.5: 12.5 ppm; for CPB 50: % control at 50 ppm against Colorado potato beetle in foliar spray tests: 5 days, Corrected % Control; for CPB 50: % control at 50 ppm against Colorado potato beetle in foliar spray tests / % Control at ppm, against Colorado potato beetle: 50: 50 ppm
Method: Insecticidal Test for Colorado Potato Beetle (Leptinotarsa decemlineata).
Tomato seedlings at the growth stage of three or four expanding leaves were used. […] Treated plants were held in the laboratory for approximately 3 h to allow drying before the upper portion (with two or three leaves) of a plant was cut and placed in a 10×2.5-cm petri dish containing approximately 10 mL of solidified 1% agar at the bottom. Five 2nd or 3rd instar larvae were placed on the treated plant tissue, and the petri dishes were covered and held in an incubator at 25° C. At 5 days following treatment, insecticidal activity was evaluated by counting the number of live larvae in each dish.

[3] = test system: sweet potato whitefly (Bemisia tabaci); experiment: Insecticidal test for sweet potato whitefly, foliar spray on cotton; details: for % Control at ppm, against sweet potato whitefly: 0.4-0.78: 0.4-0.78 ppm; for % Control at ppm, against sweet potato whitefly: 0.4-0.78 / % Control at ppm, against sweet potato whitefly: 2-3.13 / % Control at ppm, against sweet potato whitefly: 10-12.5 / % Control at ppm, against sweet potato whitefly: 50: rundown assay; for % Control at ppm, against sweet potato whitefly: 2-3.13: 2-3.13 ppm; for % Control at ppm, against sweet potato whitefly: 10-12.5: 10-12.5 ppm; for % Control at ppm, against sweet potato whitefly: 50: 50 ppm; for pest or weed control at 200 ppm: Bemisia tabaci, in Gossypium hirsutum, foliar, read-out: SPW 200: % control at 200 ppm against sweet potato whitefly in foliar spray tests
[4] = test system: beet armyworm (Spodoptera exigua); details: 50 μg/cm2, second-instar larvae, 5 days
[5] = test system: corn earworm (Helicoverpa zea); details: 50 μg/cm2, second-instar larvae, 5 days
[6] = test system: cotton aphid (Aphis gossypii); experiment: Insecticidal test for cotton aphid, foliar spray on squash; details: for pest or weed control at 50 ppm / pest or weed control at 200 ppm: Aphis gossypii, foliar, 72 h; for pest or weed control at 50 ppm: read-out: CA 50: % control at 50 ppm against cotton aphid in foliar spray tests; for pest or weed control at 200 ppm: read-out: CA 200: % control at 200 ppm against cotton aphid in foliar spray tests; for % Control at ppm, against cotton aphid: 0.012: 0.012 ppm; for % Control at ppm, against cotton aphid: 0.049: 0.049 ppm; for % Control at ppm, against cotton aphid: 0.195: 0.195 ppm; for % Control at ppm, against cotton aphid: 0.78: 0.78 ppm; for % Control at ppm, against cotton aphid: 3.12: 3.12 ppm
[7] = test system: beet armyworm (Spodoptera exigua); experiment: Insecticidal test for beet armyworm in injection assays; details: 1 h, read-out: BAW SYM: % showing intoxicated symptoms at 10 μg/larva against beet armyworm in injection tests
[8] = test system: fruit fly (Drosophila melanogaster); details: for FF SYM: % showing intoxicated symptoms at 25 μg/cm2 against fruit fly in dietary tests: 25 μg/cm2, 4 h; for FF 25: % mortality at 25 μg/cm2 against fruit fly in dietary tests: 25 μg/cm2, 48 h
[9] = test system: green peach aphid (Myzus persicae); experiment: Insecticidal test for green peach aphid, foliar spray on cabbage seedlings; details: rundown assay, 3 days; for % Control at ppm, against green peach aphid: 0.012: 0.012 ppm; for % Control at ppm, against green peach aphid: 0.049: 0.049 ppm; for % Control at ppm, against green peach aphid: 0.195: 0.195 ppm; for % Control at ppm, against green peach aphid: 0.78: 0.78 ppm; for % Control at ppm, against green peach aphid: 3.12: 3.12 ppm

Row | SMILES | pest or weed control at 26 ppm [1] | % Control at ppm, against Colorado potato beetle: 12.5 ([2]; rundown assay) | CPB 50: % control at 50 ppm against Colorado potato beetle in foliar spray tests [2] | % Control at ppm, against Colorado potato beetle: 50 ([2]; rundown assay) | % Control at ppm, against sweet potato whitefly: 0.4-0.78 [3] | % Control at ppm, against sweet potato whitefly: 2-3.13 [3] | % Control at ppm, against sweet potato whitefly: 10-12.5 [3] | % Control at ppm, against sweet potato whitefly: 50 [3] | pest or weed control at 200 ppm [3] | BAW 50: % mortality at 50 μg/cm2 against beet armyworm in dietary tests [4] | CEW 50: % mortality at 50 μg/cm2 against corn earworm in dietary tests [5] | pest or weed control at 50 ppm [6] | pest or weed control at 200 ppm [6] | pest or weed control at 0.01 mg [7] | FF SYM: % showing intoxicated symptoms at 25 μg/cm2 against fruit fly in dietary tests [8] | FF 25: % mortality at 25 μg/cm2 against fruit fly in dietary tests [8] | % Control at ppm, against green peach aphid: 0.049 [9] | % Control at ppm, against green peach aphid: 0.195 [9] | % Control at ppm, against green peach aphid: 0.78 [9] | % Control at ppm, against green peach aphid: 3.12 [9] | further results
1 | CC(c1ccc(Cl)nc1)S(C)(=O)=NC#N (stereo not drawn) [Compound 8, [1-(6-chloropyridin-3-yl)ethyl](methyl)oxido-λ^4-sulfanylidenecyanamide] | 90 to 100% | A (90-100) | A (90-100) | A (90-100) | A (90-100) | A (90-100) | A (90-100) | A (90-100) | 90 to 100% | G (Inactive) | G (Inactive) | 90 to 100% | 90 to 100% | 50 to 59% | A (90-100) | A (90-100) |  |  |  |  | % Control at ppm, against Colorado potato beetle: 3.13 ([2]; rundown assay): D (60-69)
2 | CS(=O)(Cc1ccc(Cl)nc1)=NC#N (stereo not drawn) [Compound 10, [(6-Chloropyridin-3-yl)methyl](methyl)oxido-λ^4-sulfanylidene-cyanamide] | 90 to 100% | E (50-59) | B (80-89) | B (80-89) | F (Less than 50) | D (60-69) | A (90-100) | A (90-100) | 90 to 100% | G (Inactive) | G (Inactive) | 90 to 100% | 90 to 100% | < 50% | A (90-100) | A (90-100) |  |  |  |  | 
3 | CS(=O)(=NC#N)C(Br)c1ccc(Cl)nc1 (stereo not drawn) [Compound 24] | 90 to 100% |  |  |  |  |  |  |  |  | G (Inactive) | G (Inactive) | 90 to 100% | 90 to 100% | < 50% | F (Less than 50) | A (90-100) |  |  |  |  | 
4 | CCC(c1ccc(Cl)nc1)S(C)(=O)=NC#N (stereo not drawn) [Compound 26] | 90 to 100% |  |  |  |  |  |  |  |  | G (Inactive) | G (Inactive) | 90 to 100% | 90 to 100% | < 50% | A (90-100) | A (90-100) |  |  |  |  | 
5 | C[C@H](c1ccc(Cl)nc1)[S@](C)(=O)=NC#N [Compound 28] | 90 to 100% |  |  |  | A (90-100) | A (90-100) | A (90-100) | A (90-100) | 90 to 100% | G (Inactive) | G (Inactive) | 90 to 100% | 90 to 100% | 60 to 69% | A (90-100) | A (90-100) | F (Less than 50) | B (80-89) | A (90-100) | A (90-100) | % Control at ppm, against green peach aphid: 0.012 [9]: F (Less than 50); % Control at ppm, against cotton aphid: 0.012 ([6]; rundown assay): A (90-100); % Control at ppm, against cotton aphid: 0.049 ([6]; rundown assay): A (90-100); % Control at ppm, against cotton aphid: 0.195 ([6]; rundown assay): A (90-100); % Control at ppm, against cotton aphid: 0.78 ([6]; rundown assay): A (90-100); % Control at ppm, against cotton aphid: 3.12 ([6]; rundown assay): A (90-100)
6 | CC(c1ccc(Cl)nc1)[S@](C)(=O)=NC#N (stereo partly drawn) [Compound 29] | 90 to 100% |  |  |  | A (90-100) | A (90-100) | A (90-100) | A (90-100) | 90 to 100% | G (Inactive) | G (Inactive) | 90 to 100% | 90 to 100% | 90 to 100% | A (90-100) | A (90-100) | D (60-69) | A (90-100) | A (90-100) | A (90-100) | % Control at ppm, against green peach aphid: 0.012 [9]: F (Less than 50); % Control at ppm, against cotton aphid: 0.012 ([6]; rundown assay): A (90-100); % Control at ppm, against cotton aphid: 0.049 ([6]; rundown assay): A (90-100); % Control at ppm, against cotton aphid: 0.195 ([6]; rundown assay): A (90-100); % Control at ppm, against cotton aphid: 0.78 ([6]; rundown assay): A (90-100); % Control at ppm, against cotton aphid: 3.12 ([6]; rundown assay): A (90-100)
7 | O=[N+]([O-])N=S1(=O)CCCC1Cc1ccc(Cl)nc1 (stereo not drawn) [Compound 35] | 80 to 89% |  | B (80-89) |  |  |  |  |  | 90 to 100% | G (Inactive) | G (Inactive) | 90 to 100% | 90 to 100% | < 50% | D (60-69) | F (Less than 50) |  |  |  |  | 
8 | O=[N+]([O-])N=[S@@]1(=O)CCCC1Cc1ccc(Cl)nc1 (stereo partly drawn) [Compound 41] | 90 to 100% | D (60-69) | A (90-100) | A (90-100) |  |  |  |  | 90 to 100% | G (Inactive) | G (Inactive) | 90 to 100% | 90 to 100% |  |  | F (Less than 50) | F (Less than 50) | F (Less than 50) | E (50-59) | D (60-69) | % Control at ppm, against Colorado potato beetle: 0.78 ([2]; 0.78 ppm, rundown assay): F (Less than 50); % Control at ppm, against Colorado potato beetle: 3.13 ([2]; rundown assay): F (Less than 50); % Control at ppm, against green peach aphid: 12.5 ([9]; 12.5 ppm): A (90-100); % Control at ppm, against green peach aphid: 50 ([9]; 50 ppm): A (90-100); % Control at ppm, against cotton aphid: 0.049 ([6]; rundown assay): C (70-79); % Control at ppm, against cotton aphid: 0.195 ([6]; rundown assay): A (90-100); % Control at ppm, against cotton aphid: 0.78 ([6]; rundown assay): A (90-100); % Control at ppm, against cotton aphid: 3.12 ([6]; rundown assay): A (90-100); % Control at ppm, against cotton aphid: 12.5 ([6]; 12.5 ppm, rundown assay): A (90-100); % Control at ppm, against cotton aphid: 50 ([6]; 50 ppm, rundown assay): A (90-100)
